Assays:
[1] = tested on: tomato leaf transpiration; experiment: Tomato leaf transpiration inhibition after foliar spray (LI-1600 porometer); assay type: in vivo, Tomato (variety: Rutgers); conditions: for Transpiration rate (% of control), 1 day after treatment: day 1; for Transpiration rate (% of control), 2 days after treatment: day 2; for Transpiration rate (% of control), 3 days after treatment: day 3; for Transpiration rate (% of control), 4 days after treatment: day 4; for Transpiration rate (% of control), 7 days after treatment: day 7; for ABA dose to achieve 50% inhibition of transpiration: from linear regression of 3-day average transpiration rate on log dose
Description: (§1) Preparation of plant specimens for use in the treatment studies of the EXAMPLES that follow was carried out as follows. Tomato (variety: Rutgers) seeds were sown in an 18-cell flat filled with Promix PGX (available from Premier Horticulture Inc., Quakertown Pa.) and grown for 3 weeks to allow for germination and initial growth. Plants were then transplanted into pots (18 cm in diameter and 18 cm in height), filled with Promix BX (available from Premier Horticulture Inc., Quakertown Pa.), and grown for one or two more weeks before treatment, depending on temperature and available light. Plants received daily irrigation and weekly fertilizer (1 g/L all purpose fertilizer 20-20-20, available from The Scotts Company, Marysville, Ohio).
(§2) All treatment solutions were made up with distilled water. The (S)-(+)-abscisic acid (95% active ingredient) is available from Lomon BioTechnology Co., Ltd. (Shichuan, China). The prior art aqueous solution composition of the ammonium salt of (S)-(+)-abscisic acid as prepared in Example 11 above was used as a positive treatment control for most of the studies.
(§3) All experiments were conducted using a randomized complete block experimental design. Solutions of (S)-(+)-abscisic acid and blank treatments (plain water) were applied by spray to the aerial parts of the tomato plants at the rate of 24 mL per 6 plants. Plants were then placed in a transparent chamber with humidity controlled within the range of 40 to 60% relative humidity. Leaf transpiration rates were measured at 1, 2, 3, 4 and 7 days after treatment. Measurements were conducted using a LI-1600 Steady State Porometer (LI-Cor, Lincoln, Nebr.). Each day the transpiration rate of the plants of each treatment group was normalized to a percentage of the transpiration rate of untreated plants (plants sprayed with water only) in order to control for day-to-day variability in plant status caused by changes of environmental conditions such as light intensity and temperature. Data for each plant was also averaged over a 3-day period to balance the short term and long term effect of (S)-(+)-abscisic acid on tomato leaf transpiration as well as to reduce experimental variability.
The regression equation of each (S)-(+)-abscisic acid salt as well as abscisic acid concentrations for 50% inhibition of transpiration were calculated. The relative potency of two ABA salts is the reciprocal of the ratio of (S)-(+)-abscisic acid concentration required for 50% transpiration inhibition for each composition.

[2] = tested on: tomato shoot fresh weight; experiment: Tomato shoot fresh weight 7 days after treatment (growth suppression); assay type: in vivo, Tomato (variety: Rutgers); conditions: foliar spray
Description: as §1, §2, §3
In this experiment, the fresh weights of the aerial parts of the tomato plants were also measured at the end of the experiment, 7 days after treatments were applied, in order to assess the relative growth suppressing activity of the compositions.

[3] = (S)-(+)-abscisic acid dose 0.3 mg, foliar spray
[4] = (S)-(+)-abscisic acid dose 1 mg, foliar spray
[5] = (S)-(+)-abscisic acid dose 3 mg, foliar spray
[6] = (S)-(+)-abscisic acid dose 10 mg, foliar spray
[7] = foliar spray, 250 ppm (S)-(+)-abscisic acid (1 mg), additives as in label
[8] = reciprocal of ratio of doses for 50% transpiration inhibition
[9] = 462 ppm ChI, no (S)-(+)-abscisic acid
[10] = 332 ppm KI, no (S)-(+)-abscisic acid

Structure (SMILES) | Transpiration rate (% of control), Average of 3 days after treatment [1, 3] | Transpiration rate (% of control), Average of 3 days after treatment [1, 4] | Transpiration rate (% of control), Average of 3 days after treatment [1, 5] | Transpiration rate (% of control), Average of 3 days after treatment [1, 6] | Transpiration rate (% of control), 7-Day Average [1, 7] | Transpiration rate (% of control), 1 day after treatment [1, 7] | Transpiration rate (% of control), 2 days after treatment [1, 7] | Transpiration rate (% of control), 3 days after treatment [1, 7] | Transpiration rate (% of control), 4 days after treatment [1, 7] | Transpiration rate (% of control), 7 days after treatment [1, 7] | ABA dose to achieve 50% inhibition of transpiration [1] [mg] | also measured
CC1=CC(=O)CC(C)(C)[C@@]1(O)/C=C/C(C)=C\C(=O)[O-].C[N+](C)(C)C [Example 3, Tetramethylammonium Salt of (S)-(+)-Abscisic Acid] | 79 % of control | 65 % of control | 52 % of control | 38 % of control | 73.7 % of control | 59.1 % of control | 63.6 % of control | 71.9 % of control | 78.6 % of control | 95.4 % of control | 3.59 | Relative potency compared to the trimethylamine salt composition of Comparative Example 13 [1, 8]: 4.6 times
CC1=CC(=O)CC(C)(C)[C@@]1(O)/C=C/C(C)=C\C(=O)O.CCCCN(CCCC)CCCC [Example 14, Tributylamine Salt of (S)-(+)-Abscisic Acid, reference compound] | 82 % of control | 70 % of control | 53 % of control | 40 % of control | 79.5 % of control | 59.7 % of control | 71.3 % of control | 78.8 % of control | 87.4 % of control | 100.3 % of control | 4.34 | Fresh weight (g) 7 days after treatment ([2]; 75 ppm (0.3 mg) (S)-(+)-abscisic acid): 15.7 g; Fresh weight (g) 7 days after treatment ([2]; 250 ppm (1 mg) (S)-(+)-abscisic acid, additives as in label): 15.3 g; Fresh weight (g) 7 days after treatment ([2]; 750 ppm (3 mg) (S)-(+)-abscisic acid): 15.0 g; Fresh weight (g) 7 days after treatment ([2]; 2500 ppm (10 mg) (S)-(+)-abscisic acid): 13.9 g
C[N+](C)(C)CCO.[I-] [ChI, choline iodide, reference compound] | – | – | – | – | – | – | – | – | – | – | – | Transpiration rate (% of control), 7-Day Average [1, 9]: 100.6 % of control; Transpiration rate (% of control), 1 day after treatment [1, 9]: 96.4 % of control; Transpiration rate (% of control), 2 days after treatment [1, 9]: 104.2 % of control; Transpiration rate (% of control), 3 days after treatment [1, 9]: 104.5 % of control; Transpiration rate (% of control), 4 days after treatment [1, 9]: 98.9 % of control; Transpiration rate (% of control), 7 days after treatment [1, 9]: 98.9 % of control
CC1=CC(=O)CC(C)(C)[C@@]1(O)/C=C/C(C)=C\C(=O)O.CN(C)C [Example 13, Trimethylamine Salt of (S)-(+)-Abscisic Acid, reference compound] | 84 % of control | 74 % of control | 65 % of control | 54 % of control | 81.2 % of control | 65.5 % of control | 73.6 % of control | 81.7 % of control | 88.2 % of control | 97.0 % of control | 16.59 | –
[I-].[K+] [KI, potassium iodide, reference compound] | – | – | – | – | – | – | – | – | – | – | – | Transpiration rate (% of control), 4 Day Average ([1]; 332 ppm KI, no (S)-(+)-abscisic acid, 4-day average): 100.7 % of control; Transpiration rate (% of control), 1 day after treatment [1, 10]: 100.2 % of control; Transpiration rate (% of control), 2 days after treatment [1, 10]: 100.5 % of control; Transpiration rate (% of control), 3 days after treatment [1, 10]: 99.6 % of control; Transpiration rate (% of control), 4 days after treatment [1, 10]: 102.6 % of control
CC1=CC(=O)CC(C)(C)[C@@]1(O)/C=C/C(C)=C\C(=O)[O-].[K+] [Example 12, Potassium Salt of (S)-(+)-Abscisic Acid, reference compound] | 76 % of control | 66 % of control | 55 % of control | 44 % of control | 77.0 % of control | 55.0 % of control | 64.9 % of control | 76.9 % of control | 90.9 % of control | 97.3 % of control | 5.28 | Relative potency compared to the ammonium salt composition of Comparative Example 11 [1, 8]: 0.98 times

Source: patent US8278480B2, “Salts, aqueous liquid compositions containing salts of S-(+)-abscisic acid and methods of their preparation” (Valent BioSciences Corporation, priority 2008, dated 2012)
